Reference: ChEMBL document CHEMBL3808353, “Targeting the Follicle Stimulating Hormone Receptor (FSHR) To Treat Fertility Disorders” (ACS Med Chem Lett, 2016)

How the values were obtained:
[1] = target: T1, Follicle-stimulating hormone receptor (Homo sapiens, UniProt P23945); experiment: Positive allosteric modulation of FSHR (unknown origin) expressed in CHO cells assessed as FSH-induced cAMP accumulation incubated for 1 hr by HTRF assay; format: functional, cell-based
T1 sequence (P23945 whole entry): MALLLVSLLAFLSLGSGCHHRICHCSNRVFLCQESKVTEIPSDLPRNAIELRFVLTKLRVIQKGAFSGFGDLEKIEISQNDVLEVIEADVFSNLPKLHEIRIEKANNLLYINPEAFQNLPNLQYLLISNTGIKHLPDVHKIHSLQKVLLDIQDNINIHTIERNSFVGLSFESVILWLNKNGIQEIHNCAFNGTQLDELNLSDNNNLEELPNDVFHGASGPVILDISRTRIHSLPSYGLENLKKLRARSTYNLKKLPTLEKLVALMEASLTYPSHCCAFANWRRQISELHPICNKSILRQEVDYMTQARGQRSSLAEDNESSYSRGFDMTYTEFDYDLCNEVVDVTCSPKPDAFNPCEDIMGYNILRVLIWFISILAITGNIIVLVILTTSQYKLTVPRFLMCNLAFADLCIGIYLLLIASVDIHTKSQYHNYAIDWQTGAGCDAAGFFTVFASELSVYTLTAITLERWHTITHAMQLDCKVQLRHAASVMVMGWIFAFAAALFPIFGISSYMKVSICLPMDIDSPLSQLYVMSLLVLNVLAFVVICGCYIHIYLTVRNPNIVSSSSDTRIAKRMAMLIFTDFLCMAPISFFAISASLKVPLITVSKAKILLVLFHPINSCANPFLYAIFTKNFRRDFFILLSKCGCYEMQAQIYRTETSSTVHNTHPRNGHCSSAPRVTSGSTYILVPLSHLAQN

[2] = target: T1, Follicle-stimulating hormone receptor; experiment: Positive allosteric modulation of human FSHR expressed in rat granulosa cells assessed as FSH-induced estradiol production after 72 hrs by radioimmunossay; format: cell-based

Row | SMILES | EC50 [1] [nM] | EC50 [2] [nM]
1 | C=CCNC(=O)NCCCNC(=O)c1ccc(N2CCN(c3ccccc3C)CC2)c(NC(=O)c2ccco2)c1 | < 100 | 
2 | Cc1ccccc1N1CCN(c2ccc(C(=O)NCCCN3CCCC3=O)cc2NC(=O)c2ccco2)CC1 | < 100 | > 1000
3 | Cc1ccccc1N1CCN(c2ccc(C(=O)NCCCc3nn[nH]n3)cc2NC(=O)c2coc(C3CC3)n2)CC1 | < 100 | 100
4 | Cc1ccccc1N1CCN(c2ccc(C(=O)N[C@H]3CCC[C@H](O)C3)cc2NC(=O)c2coc(C3CC3)n2)CC1 | < 100 | 
5 | Cc1ccccc1N1CCN(c2ccc(C(=O)NCCCN3CCCC3=O)cc2NC(=O)c2ccc(F)cc2)CC1 | 100 | 100
6 | Cc1ccccc1N1CCN(c2ccc(C(=O)NCCCN3CCCC3=O)cc2NC(=O)c2coc(C3CC3)n2)CC1 | < 100 | 100
